From ChEMBL document CHEMBL4402573, “Discovery and Optimization of α-Mangostin Derivatives as Novel PDE4 Inhibitors for the Treatment of Vascular Dementia” (J Med Chem, 2020)
The source made the active and inactive calls. No cut-off for these calls is given here.

biological target: 3',5'-cyclic-AMP phosphodiesterase 4D (Homo sapiens, UniProt Q08499); assay: Inhibition of human PDE4D2 (86 to 413 residues) expressed in Escherichia coli BL21 codon-plus cells using [3H]cAMP as substrate incubated for 15 mins by liquid scintillation counting method; details: not given
Sequence (Q08499 whole entry, the tested form may be a part): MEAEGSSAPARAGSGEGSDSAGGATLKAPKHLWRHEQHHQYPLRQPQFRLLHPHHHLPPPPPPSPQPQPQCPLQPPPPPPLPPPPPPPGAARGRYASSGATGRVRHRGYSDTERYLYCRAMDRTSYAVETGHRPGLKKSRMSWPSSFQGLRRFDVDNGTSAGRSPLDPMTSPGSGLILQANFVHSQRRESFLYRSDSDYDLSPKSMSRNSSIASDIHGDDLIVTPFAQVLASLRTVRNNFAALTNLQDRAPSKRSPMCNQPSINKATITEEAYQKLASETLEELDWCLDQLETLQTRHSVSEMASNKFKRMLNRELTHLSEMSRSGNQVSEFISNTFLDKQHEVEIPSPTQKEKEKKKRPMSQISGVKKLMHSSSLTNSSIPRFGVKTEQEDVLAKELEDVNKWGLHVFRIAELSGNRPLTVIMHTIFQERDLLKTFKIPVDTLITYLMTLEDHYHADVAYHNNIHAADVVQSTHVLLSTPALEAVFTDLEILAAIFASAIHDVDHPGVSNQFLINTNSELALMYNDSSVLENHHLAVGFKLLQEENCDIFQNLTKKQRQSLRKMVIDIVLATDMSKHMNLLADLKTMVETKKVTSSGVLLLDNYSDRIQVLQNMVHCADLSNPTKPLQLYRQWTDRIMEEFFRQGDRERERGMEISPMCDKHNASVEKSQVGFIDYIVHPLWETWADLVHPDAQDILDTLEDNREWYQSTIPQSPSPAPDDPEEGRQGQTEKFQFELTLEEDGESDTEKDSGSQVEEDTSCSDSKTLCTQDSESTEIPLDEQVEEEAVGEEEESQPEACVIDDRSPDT

SMILES | IC50 [nM]
CCOC(=O)CCCCOc1cc2oc3cc4c(c(O)c3c(=O)c2c(CC=C(C)C)c1OC)C=CC(C)(C)O4 | > 10000
COc1c(OCCCCCC(=O)O)cc2oc3cc4c(c(O)c3c(=O)c2c1CC=C(C)C)C=CC(C)(C)O4 | 76
COc1c(OCCCN2CCCC2)cc2oc3cc4c(c(O)c3c(=O)c2c1CC=C(C)C)C=CC(C)(C)O4 | > 1000
COc1c(OCCCC(=O)O)cc2oc3cc4c(c(O)c3c(=O)c2c1CC=C(C)C)C=CC(C)(C)O4 | 44
CCOC(=O)CCCCCCCCOc1cc2oc3cc4c(c(O)c3c(=O)c2c(CC=C(C)C)c1OC)C=CC(C)(C)O4 | > 10000
CCOC(=O)CCCCCOc1cc2oc3cc4c(c(O)c3c(=O)c2c(CC=C(C)C)c1OC)C=CC(C)(C)O4 | > 10000
COc1c(OCCCCBr)cc2oc3cc4c(c(O)c3c(=O)c2c1CC=C(C)C)C=CC(C)(C)O4 | > 10000
COc1c(O)cc2oc3cc4c(c(O)c3c(=O)c2c1CC=C(C)C)C=CC(C)(C)O4 [MANGOSTANIN] | 420
COc1c(OCCCCCN2CCCC2)cc2oc3cc4c(c(O)c3c(=O)c2c1CC=C(C)C)C=CC(C)(C)O4 | 200
CCOC(=O)COc1cc2oc3cc4c(c(O)c3c(=O)c2c(CC=C(C)C)c1OC)C=CC(C)(C)O4 | > 10000
COc1c(OCCCCCCCBr)cc2oc3cc4c(c(O)c3c(=O)c2c1CC=C(C)C)C=CC(C)(C)O4 | > 10000
COc1c(O)cc2oc3cc(O)c(CC=C(C)C)c(O)c3c(=O)c2c1CC=C(C)C [MANGOSTIN] | 1310
COc1c(OCC(=O)O)cc2oc3cc4c(c(O)c3c(=O)c2c1CC=C(C)C)C=CC(C)(C)O4 | 480
COc1c(OCCCCN2CCCC2)cc2oc3cc4c(c(O)c3c(=O)c2c1CC=C(C)C)C=CC(C)(C)O4 | 622
COc1c(OCCCCCCBr)cc2oc3cc4c(c(O)c3c(=O)c2c1CC=C(C)C)C=CC(C)(C)O4 | > 10000
CCOC(=O)CCCCCCCOc1cc2oc3cc4c(c(O)c3c(=O)c2c(CC=C(C)C)c1OC)C=CC(C)(C)O4 | > 10000
COc1c(OCCCCCBr)cc2oc3cc4c(c(O)c3c(=O)c2c1CC=C(C)C)C=CC(C)(C)O4 | > 10000
COc1c(OCCCCCCN2CCCC2)cc2oc3cc4c(c(O)c3c(=O)c2c1CC=C(C)C)C=CC(C)(C)O4 | 99
CCOC(=O)CCCCCCOc1cc2oc3cc4c(c(O)c3c(=O)c2c(CC=C(C)C)c1OC)C=CC(C)(C)O4 | > 10000
COc1c(OCCCCCCCCC(=O)O)cc2oc3cc4c(c(O)c3c(=O)c2c1CC=C(C)C)C=CC(C)(C)O4 | 58
COc1c(OCCCCCCCN2CCCC2)cc2oc3cc4c(c(O)c3c(=O)c2c1CC=C(C)C)C=CC(C)(C)O4 | 148
CCOC(=O)CCCOc1cc2oc3cc4c(c(O)c3c(=O)c2c(CC=C(C)C)c1OC)C=CC(C)(C)O4 | > 10000
COc1c(OCCCBr)cc2oc3cc4c(c(O)c3c(=O)c2c1CC=C(C)C)C=CC(C)(C)O4 | > 10000
COc1c(OCCCCC(=O)O)cc2oc3cc4c(c(O)c3c(=O)c2c1CC=C(C)C)C=CC(C)(C)O4 | 99
COc1c(OCCCCCCCC(=O)O)cc2oc3cc4c(c(O)c3c(=O)c2c1CC=C(C)C)C=CC(C)(C)O4 | 16

biological target: Phosphodiesterase isozyme 4 (Homo sapiens, UniProt Q86V67); assay: Inhibition of PDE4 (unknown origin); details: not given
Sequence (Q86V67 whole entry): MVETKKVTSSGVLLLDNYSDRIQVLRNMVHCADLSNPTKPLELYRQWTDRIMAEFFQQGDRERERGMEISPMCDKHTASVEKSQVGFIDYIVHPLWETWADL

SMILES | IC50 [nM]
C=C(C)[C@@H]1CC[C@]2(C(=O)O)CC[C@]3(C)[C@H](CC[C@@H]4[C@@]5(C)CC[C@H](O)C(C)(C)[C@@H]5CC[C@]43C)[C@@H]12 [BETULINIC ACID] | 125000

tested on: not listed separately; assay: Toxicity in Beagle dog assessed as animals exhibiting emesis at 1 mg/kg, po observed for 180 mins; type: organism-based, Canis lupus familiaris; details: in vivo, 3 h

SMILES | Activity [%]
COc1ccc(C2CNC(=O)C2)cc1OC1CCCC1 (stereo not given) [ROLIPRAM] | 100

tested on: Mus musculus; assay: Anti-VaD activity against UCCAO-induced spatial memory deficient C57BL/6J mouse model assessed as improvement in spatial learning and memory by measuring reduction in escape latency at 0.7 mg/kg, po administered for 21 days by Morris water maze test; type: functional, organism-based; details: not given

SMILES | Activity
COc1cc2c(cc1OC)C(=O)C(CC1CCN(Cc3ccccc3)CC1)C2 (stereo not given) | Active

tested on: Mus musculus; assay: Anti-VaD activity against UCCAO-induced spatial memory deficient C57BL/6J mouse model assessed as improvement in spatial learning and memory by measuring increase in frequency of platform area crossings at 0.7 mg/kg, po administered for 21 days by Morris water maze test; type: functional, organism-based; details: not given

SMILES | Activity
COc1cc2c(cc1OC)C(=O)C(CC1CCN(Cc3ccccc3)CC1)C2 (stereo not given) | Active

tested on: Mus musculus; assay: Anti-VaD activity against UCCAO-induced spatial memory deficient C57BL/6J mouse model assessed as improvement in spatial learning and memory by measuring increase in residence time on the platform at 0.7 mg/kg, po administered for 21 days by Morris water maze test; type: functional, organism-based; details: not given

SMILES | Activity
COc1cc2c(cc1OC)C(=O)C(CC1CCN(Cc3ccccc3)CC1)C2 (stereo not given) | Active
